# Measured values as given in patent publication US20260274833A1 (NiKang Therapeutics, Inc., priority 2022, published 2026).
# Molecular target: T1, CDK2 (Homo sapiens, UniProt P24941)
# T1 construct: endogenous in cells; host or cells: OVCAR3 cells
# Assay: Phospho-RB measurement in OVCAR3 cells (HTRF phospho-RB cellular kit)
# Assay type: cell-based
# Details: inhibition of RB phosphorylation at S807/811 (HTRF, TR-FRET ratio 665/620), 24 h compound treatment, 0.3 to 10,000 nM
# Description: Biological Example 1: Phospho-RB Measurement in OVCAR3 Cells
# The ability of compounds of Formula (I) to inhibit CDK2 was determined in OVCAR3 cells by measuring inhibition of phosphorylation of RB protein at S780 and S807/811. Phosphorylation of RB protein at S807/811 were measured using HTRF phospho-RB cellular kits (Cat #64RBS807PEG) from Cisbio.
# On Day 1, OVCAR3 cells were seeded into 96-well tissue-culture treated plates at 20,000 cells/well in 200 μL and incubated overnight at 37° C. in CO2 atmosphere. On Day 2, the cells were treated with test compounds at concentrations from 0.3 to 10,000 nM using HP D300 digital dispenser. Twenty-four hours after compound treatment, cell culture media was removed by flicking the plate and tapping the plate against clean paper towel. Immediately 30 μL 1× lysis buffer was supplemented from the kit and the plate was incubated at room temperature on shaker for 30 min. After homogenization by pipetting up and down, 8 μL cell lysate from 96-well cell culture plate was transferred to 384-well small volume white detection plate. 2 μL premixed detection solution was added and the plate was covered with sealer. To prepare the detection solution, d2 conjugated-phospho-RB antibody and Eu-cryptate conjugated phosphor-RB antibody were diluted into detection buffer following manufacturer's instruction.
# Detection plates were incubated for 4 h at room temperature and read on ClarioStar (BMG Labtech) in TR-FRET mode ([…]). The TR-FRET ratio (665 nM/620 nM) was plotted against the compound concentration and normalized to DMSO controls. Half maximal inhibition concentration (IC50) values are calculated with a four-parameter logistic fit using GraphPad Prism (version 8; La Jolla, CA).
row,SMILES,IC50
1,"COc1cccc2c1CN(S(=O)(=O)Nc1cccc(-c3nc(C4(C)CCOCC4)sc3-c3ccnc(NC4CC5(C4)CS(=O)(=O)C5)n3)c1F)C2 [Example 2, N-(3-(5-(2-((2,2-dioxido-2-thiaspiro-[3.3]-heptan-6-yl)amino)pyrimidin-4-yl)-2-(4-methyltetrahydro-2H-pyran-4-yl)-thiazol-4-yl)-2-fluorophenyl)-4-methoxyisoindoline-2-sulfonamide]",75.5 nM
2,"CC1(c2nc(-c3cccc(NS(=O)(=O)N4Cc5cccc(C(F)(F)F)c5C4)c3F)c(-c3ccnc(NC4CC5(C4)CS(=O)(=O)C5)n3)s2)CCOCC1 [Example 3, N-(3-(5-(2-((2,2-dioxido-2-thiaspiro-[3.3]-heptan-6-yl)amino)pyrimidin-4-yl)-2-(4-methyltetrahydro-2H-pyran-4-yl)thiazol-4-yl)-2-fluorophenyl)-4-(trifluoromethyl) isoindoline-2-sulfonamide]",48.6 nM
3,"O=S1(=O)CC2(CC(Nc3nccc(-c4sc(N5C6CCC5COC6)nc4-c4cccc(NS(=O)(=O)N5Cc6ccccc6C5)c4F)n3)C2)C1 [Example 4, N-(3-(2-(3-oxa-8-azabicyclo[3.2.1]octan-8-yl)-5-(2-((2,2-dioxido-2-thiaspiro-[3.3]heptan-6-yl)amino)pyrimidin-4-yl)thiazol-4-yl)-2-fluorophenyl)-isoindoline-2-sulfonamide]",138 nM
4,"CC1(c2nc(-c3cccc(NS(=O)(=O)N4CCc5ccc(C#N)cc54)c3F)c(-c3ccnc(NC4CC5(C4)CS(=O)(=O)C5)n3)s2)CCOCC1 [Example 5, 6-cyano-N-(3-(5-(2-((2,2-dioxido-2-thiaspiro-[3.3]heptan-6-yl)amino)-pyrimidin-4-yl)-2-(4-methyltetrahydro-2H-pyran-4-yl)thiazol-4-yl)-2-fluorophenyl) indoline-1-sulfonamide]",32.7 nM
5,"N#Cc1ccc2c(c1)N(S(=O)(=O)Nc1cccc(-c3nc(N4C5CCC4COC5)sc3-c3ccnc(NC4CC5(C4)CS(=O)(=O)C5)n3)c1F)CC2 [Example 6, N-(3-(2-(3-oxa-8-azabicyclo[3.2.1]octan-8-yl)-5-(2-((2,2-dioxido-2-thiaspiro-[3.3]heptan-6-yl)amino)pyrimidin-4-yl)thiazol-4-yl)-2-fluorophenyl)-6-cyanoindoline-1-sulfonamide]",109 nM
6,"COc1cccc2c1CN(S(=O)(=O)Nc1cccc(-c3nc(C4(C)CCOCC4)sc3-c3ccnc(N[C@H]4[C@@H]5CS(=O)(=O)C[C@@H]54)n3)c1F)C2 [Example 7, N-(3-(5-(2-(((1R, 5S,6r)-3,3-dioxido-3-thiabicyclo[3.1.0]hexan-6-yl)amino)-pyrimidin-4-yl)-2-(4-methyltetrahydro-2H-pyran-4-yl)thiazol-4-yl)-2-fluorophenyl)-4-methoxyisoindoline-2-sulfonamide]",9.2 nM
7,"CC1(c2nc(-c3cccc(NS(=O)(=O)N4Cc5cccc(C(F)(F)F)c5C4)c3F)c(-c3ccnc(N[C@H]4[C@@H]5CS(=O)(=O)C[C@@H]54)n3)s2)CCOCC1 [Example 8, N-(3-(5-(2-(((1R,5S, 6r)-3,3-dioxido-3-thiabicyclo[3.1.0]hexan-6-yl)amino)-pyrimidin-4-yl)-2-(4-methyltetrahydro-2H-pyran-4-yl)thiazol-4-yl)-2-fluorophenyl)-4-(trifluoromethyl)-isoindoline-2-sulfonamide]",15.2 nM
8,"N#Cc1ccc2c(c1)N(S(=O)(=O)Nc1cccc(-c3nc(C45CC(C4)C5)sc3-c3ccnc(NC4CC5(C4)CS(=O)(=O)C5)n3)c1F)CC2 [Example 9, N-(3-(2-(bicyclo [1.1.1]pentan-1-yl)-5-(2-((2,2-dioxido-2-thiaspiro[3.3]heptan-6-yl)amino)-pyrimidin-4-yl)thiazol-4-yl)-2-fluorophenyl)-6-cyanoindoline-1-sulfonamide]",104 nM
9,CC1(c2nc(-c3cccc(NS(=O)(=O)N4CCc5ccc(C#N)cc54)c3F)c(-c3ccnc(N[C@H]4[C@@H]5CS(=O)(=O)C[C@@H]54)n3)s2)CCOCC1 [Example 10],73 nM
10,"O=S1(=O)C[C@@H]2[C@H](C1)[C@H]2Nc1nccc(-c2sc(C34CC(C3)C4)nc2-c2cccc(NS(=O)(=O)N3Cc4ccc(CO)cc4C3)c2F)n1 [Example 11, N-(3-(2-(bicyclo [1.1.1]pentan-1-yl)-5-(2-(((1R,5S,6r)-3,3-dioxido-3-thiabicyclo-[3.1.0]hexan-6-yl)amino)pyrimidin-4-yl)thiazol-4-yl)-2-fluorophenyl)-5-(hydroxymethyl) isoindoline-2-sulfonamide]",81 nM
11,"CC1(c2nc(-c3cccc(NS(=O)(=O)N4Cc5ccc(CO)cc5C4)c3F)c(-c3ccnc(N[C@H]4[C@@H]5CS(=O)(=O)C[C@@H]54)n3)s2)CCOCC1 [Example 12, N-(3-(5-(2-(((1R, 5S,6r)-3,3-dioxido-3-thiabicyclo[3.1.0]hexan-6-yl)amino)-pyrimidin-4-yl)-2-(4-methyltetrahydro-2H-pyran-4-yl)thiazol-4-yl)-2-fluorophenyl)-5-(hydroxymethyl)-isoindoline-2-sulfonamide]",47.8 nM
12,"O=S1(=O)C[C@@H]2[C@H](C1)[C@H]2Nc1nccc(-c2sc(C34CC(C3)C4)nc2-c2cccc(NS(=O)(=O)N3CCc4c(CO)cccc43)c2F)n1 [Example 13, N-(3-(2-(bicyclo [1.1.1]pentan-1-yl)-5-(2-(((1R,5S,6r)-3,3-dioxido-3-thia-bicyclo[3.1.0]-hexan-6-yl)amino)-pyrimidin-4-yl)thiazol-4-yl)-2-fluorophenyl)-4-(hydroxymethyl)-indoline-1-sulfonamide]",57.7 nM
13,"N#Cc1ccc2c(c1)N(S(=O)(=O)Nc1cccc(-c3nc(C45CC(C4)C5)sc3-c3ccnc(N[C@H]4[C@@H]5CS(=O)(=O)C[C@@H]54)n3)c1F)CC2 [Example 14, N-(3-(2-(bicyclo [1.1.1]pentan-1-yl)-5-(2-(((1R,5S,6r)-3,3-dioxido-3-thiabicyclo-[3.1.0]-hexan-6-yl)amino)pyrimidin-4-yl)thiazol-4-yl)-2-fluorophenyl)-6-cyanoindoline-1-sulfonamide]",124 nM
14,"CN1CC2CCC(C1)N2c1nc(-c2cccc(NS(=O)(=O)N3Cc4ccccc4C3)c2F)c(-c2ccnc(NC3CC4(C3)CS(=O)(=O)C4)n2)s1 [Example 15, N-(3-(5-(2-((2,2-dioxido-2-thiaspiro-[3.3]-heptan-6-yl)amino)pyrimidin-4-yl)-2-(3-methyl-3,8-diazabicyclo[3.2.1]-octan-8-yl)thiazol-4-yl)-2-fluorophenyl)-isoindoline-2-sulfonamide]",72.5 nM
15,"CN1CC2CCC(C1)N2c1nc(-c2cccc(NS(=O)(=O)N3CCc4ccc(C#N)cc43)c2F)c(-c2ccnc(NC3CC4(C3)CS(=O)(=O)C4)n2)s1 [Example 16, 6-cyano-N-(3-(5-(2-((2,2-dioxido-2-thiaspiro[3.3]heptan-6-yl)amino)-pyrimidin-4-yl)-2-(3-methyl-3,8-diazabicyclo[3.2.1]octan-8-yl)thiazol-4-yl)-2-fluorophenyl) indoline-1-sulfonamide]",62.4 nM
16,"CN1CC2CCC(C1)N2c1nc(-c2cccc(NS(=O)(=O)N3CCc4ccccc43)c2F)c(-c2ccnc(NC3CC4(C3)CS(=O)(=O)C4)n2)s1 [Example 17, N-(3-(5-(2-((2,2-dioxido-2-thiaspiro-[3.3]-heptan-6-yl)amino)pyrimidin-4-yl)-2-(3-methyl-3,8-diazabicyclo[3.2.1]-octan-8-yl)thiazol-4-yl)-2-fluorophenyl)-indoline-1-sulfonamide]",15 nM
17,"CN1CC2CCC(C1)N2c1nc(-c2cccc(NS(=O)(=O)N3Cc4cccc(C(F)F)c4C3)c2F)c(-c2ccnc(NC3CC4(C3)CS(=O)(=O)C4)n2)s1 [Example 18, 4-(difluoromethyl)-N-(3-(5-(2-((2,2-dioxido-2-thiaspiro [3.3]heptan-6-yl)amino)pyrimidin-4-yl)-2-(3-methyl-3,8-diazabicyclo [3.2.1]octan-8-yl)thiazol-4-yl)-2-fluorophenyl)-isoindoline-2-sulfonamide]",24.8 nM
18,"O=S1(=O)CC2(CC(Nc3nccc(-c4sc(C56CC(C5)C6)nc4-c4cccc(NS(=O)(=O)N5CCc6ccc(C(F)(F)F)cc65)c4F)n3)C2)C1 [Example 19, N-(3-(2-(bicyclo [1.1.1]pentan-1-yl)-5-(2-((2,2-dioxido-2-thiaspiro[3.3]heptan-6-yl)amino)-pyrimidin-4-yl)thiazol-4-yl)-2-fluorophenyl)-6-(trifluoromethyl)-indoline-1-sulfonamide]",120 nM
19,"COc1ccc2c(c1)N(S(=O)(=O)Nc1cccc(-c3nc(C45CC(C4)C5)sc3-c3ccnc(NC4CC5(C4)CS(=O)(=O)C5)n3)c1F)CC2 [Example 20, N-(3-(2-(bicyclo [1.1.1]pentan-1-yl)-5-(2-((2,2-dioxido-2-thiaspiro[3.3]heptan-6-yl)amino)-pyrimidin-4-yl)thiazol-4-yl)-2-fluorophenyl)-6-methoxyindoline-1-sulfonamide]",208 nM
